Values quoted from earlier work in patent US5786344A, “Camptothecin drug combinations and methods with reduced side effects” (priority 1995, dated 1998).
“Also recorded” adds a separate entry of the source. Where a name gives a salt, the structure may show the parent alone. Read-outs that look alike come from different tables or passages of the source.

Key:
[1] = cited from earlier work
[2] = test system: multidrug resistant (MDR) cells; conditions: cited from earlier work
[3] = test system: p-glycoprotein; conditions: cited from earlier work; for inhibition of photoaffinity labeling of p-glycoprotein: photolabeling
[4] = cited from earlier work; for plasma concentration: single dose 600 mg
[5] = plasma/serum/terminal or elimination half-life
[6] = listed as Trifluoperazine, dihydrochloride

Question: With CC(C)(Oc1ccc(C2CC2(Cl)Cl)cc1)C(=O)O (centres unmarked) [ciprofibrate] as the compound, how does the “potency relative to clofibrate” value ([1]; human, in vivo) read?
Answer: more potent than clofibrate

Question: For CN(C)CCCN1c2ccccc2Sc2ccc(Cl)cc21 [chlorpromazine], which “reversal of drug resistance” value [2] is on record?
Answer: effectively reverse multidrug resistance

Question: And the “inhibition of photoaffinity labeling of p-glycoprotein” value (shortened to “inhibition … of p-glycoprotein”) [3]?
Answer: poor inhibitors

Question: Which “inhibition of / interaction with p-glycoprotein” value [3] does the source give for CS(=O)(=O)O.C[C@]12C=CC(=O)C=C1CC[C@@H]1C2=CC[C@]2(C)[C@@H](C(=O)CN3CCN(c4cc(N5CCCC5)nc(N5CCCC5)n4)CC3)CC[C@@H]12 [U-74389F] here?
Answer: potent inhibitors

Question: With COc1cc([C@@H]2c3cc4c(cc3[C@@H](O[C@@H]3O[C@@H]5CO[C@@H](C)O[C@H]5[C@H](O)[C@H]3O)[C@H]3COC(=O)[C@H]23)OCO4)cc(OC)c1O [etoposide] as the compound, how does the “inhibition of / interaction with p-glycoprotein” value [3] read?
Answer: interacted with p-glycoprotein

Question: And the peak plasma concentration ([4]; human, in vivo, iv)?
Answer: 30 µg/mL

Question: And the oral absorption ([4]; human, in vivo, po)?
Answer: about 50%

Question: And the “concentration in CSF relative to plasma” value ([4]; human, in vivo)?
Answer: 1-10%

Question: What about the “excreted unchanged (urine)” value ([4]; human, in vivo) of the same compound?
Answer: Approximately 40%

Question: What about the half-life ([4]; human, in vivo) of the same compound?
Answer: about 8 hours

Question: Which “potency relative to clofibrate” value ([1]; human, in vivo) does the source give for CC(C)(Oc1ccc(CCNC(=O)c2ccc(Cl)cc2)cc1)C(=O)O [bezafibrate] here?
Answer: more potent than clofibrate

Question: Which duration of action ([1]; intramuscular or subcutaneous) does the source give for CCCCCCCCCC(=O)OCCN1CCN(CCCN2c3ccccc3Sc3ccc(C(F)(F)F)cc32)CC1 [Fluphenazine decanoate] here?
Answer: about 4 wk

Question: Which “inhibition of / interaction with p-glycoprotein” value [3] does the source give for COc1cccc2c1C(=O)c1c(O)c3c(c(O)c1C2=O)C[C@@](O)(C(=O)CO)C[C@@H]3O[C@H]1C[C@H](N)[C@H](O)[C@H](C)O1 [doxorubicin, 5,12-Naphthacenedione, (8s-cis)-10-[(3-amino-2,3,6-trideoxy-α-L-lyxo-hexopyranosyl)oxy)-7,8,9,10-tetrahydro-6,8,11-trihydroxy-8-(hydroxyacetyl)-1-methoxy-hydrochloride] here?
Answer: interacted with p-glycoprotein

Question: And the “oral absorption” value ([4]; human, in vivo, po)?
Answer: absorbed poorly

Question: What about the half-life [4, 5] of the same compound?
Answer: about 30 hr

Question: Which results are given for CCC1(c2ccccc2)C(=O)NC(=O)NC1=O [Phenobarbital, 2,4,6(1H,3H,5H)-Pyrimidinetrione, 5-ethyl-5-phenyl-]?
Answer: oral absorption ([4]; % of oral dose): Approximately 80%; therapeutic plasma levels ([4]; human, in vivo): 10 to 30 µg/mL; time to peak plasma level ([4]; human, plasma): 16 to 18 h

Question: For C[C@@H]1C[C@H]2[C@@H]3CCC4=CC(=O)C=C[C@]4(C)C3=CC[C@]2(C)[C@H]1C(=O)CN1CCN(c2cc(N3CCCC3)nc(N3CCCC3)n2)CC1 [Tirilazad], which “sensitivity of nonresistant parental cells” value ([2]; nonresistant parental cells) is on record?
Answer: does not change the sensitivity of nonresistant parental cells

Question: What about the “sensitization of resistant cells to killing by vinblastine” value ([2]; resistant cells) of the same compound?
Answer: 66 fold

Question: And the “inhibition of / interaction with p-glycoprotein” value [3]?
Answer: potent inhibitors

Question: What about the “inhibition … of p-glycoprotein” value [3] of the same compound?
Answer: more effectively than does verapamil

Question: For CO[C@H]1/C=C/O[C@@]2(C)Oc3c(C)c(O)c4c(O)c(c(/C=N/N5CCN(C)CC5)c(O)c4c3C2=O)NC(=O)/C(C)=C\C=C\[C@H](C)[C@H](O)[C@@H](C)[C@@H](O)[C@@H](C)[C@H](OC(C)=O)[C@@H]1C [Rifampin, Rifamycin, 3-[[(4-methyl-1-piperazinyl)imino]methyl]-], which “duration of effective levels” value ([4]; human, in vivo) is on record?
Answer: 8 to 10 h

Question: Which volume of distribution ([4]; human, in vivo, im) does the source give for CN(C)CCCN1c2ccccc2Sc2ccc(Cl)cc21 [Chlorpromazine hydrochloride, 10H-Phenothiazine-10-propanamine, 2-chloro-N,N-dimethyl-, mono hydrochloride] here?
Answer: 21.8 L/kg

Question: And the “bioavailability / dose reaching the systemic circulation” value ([4]; human, in vivo, po)?
Answer: 32%

Question: What about the volume of distribution ([4]; human, in vivo, po) of the same compound?
Answer: 80.6 L/kg

Question: With CC(=O)O[C@@]12CO[C@@H]1C[C@H](O)[C@@]1(C)C(=O)[C@H](O)C3=C(C)[C@@H](OC(=O)[C@H](O)[C@@H](NC(=O)OC(C)(C)C)c4ccccc4)C[C@@](O)([C@@H](OC(=O)c4ccccc4)[C@H]21)C3(C)C [Taxotere] as the compound, how does the “inhibition of / interaction with p-glycoprotein” value [3] read?
Answer: p-glycoprotein inhibitors

Question: With CCOC(=O)N(C)[C@@H]1C[C@H]2O[C@@](C)([C@@H]1OC)n1c3ccccc3c3c4c(c5c6ccccc6n2c5c31)C(=O)NC4=O [NA-382, N-ethoxycarbonyl-7-oxo-staurosporine] as the compound, how does the “inhibition of / interaction with p-glycoprotein” value [3] read?
Answer: inhibiting drug binding to p-glycoprotein

Question: With Cc1ccc(C)c(OCCCC(C)(C)C(=O)O)c1 [Gemfibrozil] as the compound, how does the plasma concentration ([4]; after 2 hours) read?
Answer: about 15 μg/ml

Question: And the plasma concentration ([4]; after 9 hours)?
Answer: ~5000 ng/mL

Question: What about the “potency relative to clofibrate” value ([1]; human, in vivo) of the same compound?
Answer: more potent than clofibrate

Question: With COc1ccc(C[C@H](N)C(=O)N[C@H]2[C@@H](O)[C@H](n3cnc4c(N(C)C)ncnc43)O[C@@H]2CO)cc1 [puromycin] as the compound, how does the “inhibition of / interaction with p-glycoprotein” value [3] read?
Answer: interacted with p-glycoprotein

Question: Which therapeutic plasma levels ([4]; human, in vivo) does the source give for O=C1CN=C(c2ccccc2Cl)c2cc([N+](=O)[O-])ccc2N1 [Clonazepam, 2H-1,4-Benzodiazepin-2-one, 5-(2-chlorophenyl)-1,3-dihydro-7-nitro-] here?
Answer: 0.02 to 0.08 µg/mL

Question: With CCN(CC)CCCC(C)Nc1ccnc2cc(Cl)ccc12 (centres unmarked) [Chloroquine phosphate, 1,4-Pentanediamine, N^4-(7-chloro-4-quinolinyl)-N^1, N^1-diethyl-, phosphate (1:2)] as the compound, how does the “oral absorption” value ([4]; oral) read?
Answer: absorbed almost completely

Question: For CN(C)CCCN1c2ccccc2Sc2ccc(C(F)(F)F)cc21 [Triflupromazine hydrochloride, 1OH-Phenothiazine-10-propanamine, N,N-dimethyl-2-(trifluoromethyl)-monohydrochloride], which “potency relative to chlorpromazine / other phenothiazines” value ([1]; human, in vivo) is on record?
Answer: somewhat more potent

Question: Which clinical toxicity ([1]; human, in vivo) does the source give for OCCN(CCO)c1nc(N2CCCCC2)c2nc(N(CCO)CCO)nc(N3CCCCC3)c2n1 [Dipyridamole, [2,6-Bis(diethanolamino)-4,9-dipiperidinopyrimido-(5,4-d)pyrimidine] here?
Answer: quite nontoxic

Question: Which “inhibition of / interaction with p-glycoprotein” value [3] does the source give for C=C[C@@]1(C)CC(=O)[C@@H]2[C@@]3(C)CCCC(C)(C)[C@@H]3[C@H](O)[C@H](OC(C)=O)[C@@]2(C)O1 [1,9-dideoxyforskolina] here?
Answer: p-glycoprotein inhibitors

Question: For OCCN1CCN(CCCN2c3ccccc3Sc3ccc(C(F)(F)F)cc32)CC1 [fluphenazine], which “reversal of drug resistance” value [2] is on record?
Answer: reversed cellular resistance to various drugs only in p-glycoprotein expressing cell lines

Question: With COc1ccc(CCN(C)CCCC(C#N)(c2ccc(OC)c(OC)c2)C(C)C)cc1OC (stereo not drawn) [Verapamil hydrochloride, benzeneacetonitrile, α-[3-[[2-(3,4-dimethoxyphenyl)ethyl]-methylamino]propyl]-3,4-dime thoxy-a-(l-methylethyl)-, hydrochloride] as the compound, how does the “excreted unchanged (urine)” value ([4]; % of dose) read?
Answer: less than 5%

Question: And the fecal excretion ([4]; % of dose)?
Answer: 16%

Question: And the oral absorption ([4]; % of oral dose)?
Answer: more than 90%

Question: Which “inhibition of / interaction with p-glycoprotein” value [3] does the source give for C=C1[C@@H](C)[C@H]2[C@H](Cc3ccccc3)NC(=O)[C@]23OC(=O)/C=C/[C@H](O)CCC[C@@H](C)C/C=C/[C@H]3[C@@H]1O [cytochalasin B] here?
Answer: inhibiting p-glycoprotein

Question: For CCCCCCC(=O)OCCN1CCN(CCCN2c3ccccc3Sc3ccc(C(F)(F)F)cc32)CC1 [Fluphenazine enanthate], which duration of action ([1]; intramuscular or subcutaneous, listed as enanthate salt) is on record?
Answer: 2 wk

Question: For CC(=O)[C@H]1CC[C@H]2[C@@H]3CC=C4C[C@@H](O)CC[C@]4(C)[C@H]3CC[C@]12C [pregnenolone], which “inhibition of / interaction with p-glycoprotein” value [3] is on record?
Answer: inhibited the transporting activity of p-glycoprotein

Question: Which “oral absorption” value ([4]; oral) does the source give for OCCN1CCN(CCCN2c3ccccc3Sc3ccc(C(F)(F)F)cc32)CC1 [Fluphenazine hydrochloride] here?
Answer: absorbed rapidly

Question: What about the onset of action ([1]; human, in vivo) of the same compound?
Answer: ≤ 1 h

Question: What about the “potency relative to chlorpromazine / other phenothiazines” value ([1]; human, in vivo) of the same compound?
Answer: more potent

Question: And the duration of action ([1]; oral or intramuscular)?
Answer: 6 h

Question: What does the source list for CCN1CCN(C(=O)N[C@@H](C(=O)N[C@@H]2C(=O)N3C(C(=O)O)=C(CSc4nnnn4C)CS[C@H]23)c2ccc(O)cc2)C(=O)C1=O [Cefoperazone]?
Answer: peak plasma concentration ([4]; human, in vivo, im): 80 to 120 µg/mL; peak plasma concentration ([4]; human, in vivo, iv): 250 to 357 µg/mL; biliary secretion ([4]; human, in vivo): 70%; urinary excretion ([4]; human, in vivo): 30%; oral absorption ([4]; oral): absorbed poorly

Question: Which results are given for CN1CCN(CCCN2c3ccccc3Sc3ccc(C(F)(F)F)cc32)CC1 [trifluoperazine, 1OH-Phenothiazine, 10-[3-(4-methyl-1-piperazinyl)propyl]-2-(trifluoromethyl)-, dihydrochloride]?
Answer: reversal of drug resistance ([2]; dihydrochloride): effectively reverse multidrug resistance; reversal of drug resistance [2, 6]: reverses multidrug resistance; inhibition of photoaffinity labeling of p-glycoprotein ([3]; dihydrochloride): poor inhibitors; inhibition of photoaffinity labeling of p-glycoprotein [3, 6]: without inhibiting photoaffinity labeling

Question: For O=C1NC(=O)C(c2ccccc2)(c2ccccc2)N1 [Phenytoin, 2,4-Imidazolidinedione, 5,5-diphenyl-], which lethal plasma levels ([4]; human, in vivo) is on record?
Answer: ~100 µg/mL

Question: With CC(=O)[C@H]1CC[C@H]2[C@@H]3CCC4=CC(=O)CC[C@]4(C)[C@H]3CC[C@]12C [progesterone] as the compound, how does the “inhibition of / interaction with p-glycoprotein” value [3] read?
Answer: inhibited the transporting activity of p-glycoprotein; also recorded: inhibits their drug efflux

Question: With OCCN1CCN(CC/C=C2/c3ccccc3Sc3ccc(C(F)(F)F)cc32)CC1 [cis-flupenthixol] as the compound, how does the “reversal of drug resistance” value [2] read?
Answer: reversed cellular resistance to various drugs only in p-glycoprotein expressing cell lines

Question: For COc1ccc2cc1Oc1ccc(cc1)C[C@H]1c3c(cc4c(c3Oc3cc5c(cc3OC)CCN(C)[C@@H]5C2)OCO4)CCN1C [cepharanthine], which “inhibition … of p-glycoprotein” value [3] is on record?
Answer: showed inhibition

Question: With COc1cccc2c1C(=O)c1c(O)c3c(c(O)c1C2=O)C[C@@](O)(C(C)O)C[C@@H]3O[C@H]1C[C@H](N)[C@H](O)[C@H](C)O1 (some centres unmarked) [daunorubicinol] as the compound, how does the half-life [4, 5] read?
Answer: about 27 hr

Question: Which gastrointestinal side effects ([1]; human, in vivo) does the source give for C=CC1CN2CCC1CC2C(O)c1ccnc2ccc(OC)cc12 (centres unmarked) [Quinidine polygalacturonate] here?
Answer: lesser incidence and severity of gastrointestinal side effects

Question: With CCN(CC)CCCC(C)Nc1ccnc2cc(Cl)ccc12 (centres unmarked) [Chloroquine] as the compound, how does the “reversal of drug resistance” value [2] read?
Answer: partially reverses drug resistance

Question: With CC(C)OC(=O)C(C)(C)Oc1ccc(C(=O)c2ccc(Cl)cc2)cc1 [fenofibrate] as the compound, how does the “potency relative to clofibrate” value ([1]; human, in vivo) read?
Answer: more potent than clofibrate
